Measured values: PubChem BioAssay AID192 (DTP/NCI, 2004)
Several values for one entry are separate records, joined by “and”; a condition that tells them apart may be missing. Equal values may be shown once. Toxic doses and inconclusive results are not listed.

Tested on: BDF1 mice, B16 melanoma ip, median survival T/C
Assay: NCI In Vivo Anticancer Drug Screen. Data for tumor model B16 Melanoma (intraperitoneal) in B6D2F1 (BDF1) mice
Conditions: endpoint: median survival time, higher = longer survival
Method in brief: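 Each result divides a survival or tumor-size measurement in the compound-treated group by the same measurement in the vehicle group.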

[1] = dose: 6.25 mg/kg/injection, schedule: Q01DX009 (ip), vehicle: Klucel (hydroxypropylcellulose) (HPC)
[2] = dose: 100.0 mg/kg/injection, schedule: Q01DX009 (ip), vehicle: Klucel (hydroxypropylcellulose) (HPC)
[3] = dose: 200.0 mg/kg/injection, schedule: Q01DX009 (ip), vehicle: Klucel (hydroxypropylcellulose) (HPC)
[4] = dose: 50.0 mg/kg/injection, schedule: Q01DX009 (ip), vehicle: saline with Tween-80
[5] = dose: 100.0 mg/kg/injection, schedule: Q01DX009 (ip), vehicle: saline with Tween-80
[6] = dose: 200.0 mg/kg/injection, schedule: Q01DX009 (ip), vehicle: saline with Tween-80

With `O=C(O)c1c2c(nc3ccccc13)Cc1ccccc1-2` as the compound, how does the T/C (dose: 3.12 mg/kg/injection, schedule: Q01DX009 (ip), vehicle: Klucel (hydroxypropylcellulose) (HPC)) read?
The T/C was 100 % of control.

What about the T/C [1] of the same compound?
Its T/C is 96 % of control and 103 % of control.

And the T/C (dose: 6.25 mg/kg/injection, schedule: Q01DX009 (ip), vehicle: water)?
The T/C was 89 % of control.

And the T/C (dose: 12.5 mg/kg/injection, schedule: Q01DX009 (ip), vehicle: Klucel (hydroxypropylcellulose) (HPC))?
Its T/C is 98 % of control and 103 % of control and 119 % of control.

And the T/C (dose: 12.5 mg/kg/injection, schedule: Q01DX009 (ip), vehicle: water)?
Its T/C is 96 % of control and 108 % of control.

And the T/C (dose: 25.0 mg/kg/injection, schedule: Q01DX009 (ip), vehicle: water)?
The T/C was 112 % of control and 114 % of control.

And the T/C (dose: 30.0 mg/kg/injection, schedule: Q03HX008 (ip), vehicle: water)?
The T/C was 96 % of control.

And the T/C (dose: 30.0 mg/kg/injection, schedule: Q03HX016 (ip), vehicle: water)?
Its T/C is 107 % of control.

And the T/C (dose: 30.0 mg/kg/injection, schedule: Q03HX024 (ip), vehicle: water)?
Its T/C is 101 % of control.

What about the T/C (dose: 44.0 mg/kg/injection, schedule: Q01DX005 (iv), vehicle: water) of the same compound?
Its T/C is 102 % of control.

What about the T/C (dose: 44.0 mg/kg/injection, schedule: Q01DX009 (ip), vehicle: water) of the same compound?
The T/C was 120 % of control.

And the T/C (dose: 44.0 mg/kg/injection, schedule: Q01DX009 (sc), vehicle: water)?
The T/C was 102 % of control.

What about the T/C (dose: 44.0 mg/kg/injection, schedule: Q03HX008 (ip), vehicle: water) of the same compound?
Its T/C is 118 % of control.

And the T/C (dose: 44.0 mg/kg/injection, schedule: Q03HX016 (ip), vehicle: water)?
The T/C was 102 % of control.

What about the T/C (dose: 44.0 mg/kg/injection, schedule: Q03HX024 (ip), vehicle: water) of the same compound?
The T/C was 118 % of control.

And the T/C (dose: 67.0 mg/kg/injection, schedule: Q01DX001 (ip), vehicle: water)?
The T/C was 107 % of control.

What about the T/C (dose: 67.0 mg/kg/injection, schedule: Q01DX005 (iv), vehicle: water) of the same compound?
The T/C was 92 % of control.

And the T/C (dose: 67.0 mg/kg/injection, schedule: Q01DX009 (ip), vehicle: water)?
Its T/C is 169 % of control.

What about the T/C (dose: 67.0 mg/kg/injection, schedule: Q01DX009 (oral), vehicle: water) of the same compound?
The T/C was 99 % of control.

What about the T/C (dose: 67.0 mg/kg/injection, schedule: Q01DX009 (sc), vehicle: water) of the same compound?
The T/C was 108 % of control.

And the T/C (dose: 67.0 mg/kg/injection, schedule: Q03HX008 (ip), vehicle: water)?
The T/C was 106 % of control.

And the T/C (dose: 67.0 mg/kg/injection, schedule: Q03HX016 (ip), vehicle: water)?
Its T/C is 104 % of control.

What about the T/C (dose: 67.0 mg/kg/injection, schedule: Q03HX024 (ip), vehicle: water) of the same compound?
Its T/C is 112 % of control.

And the T/C (dose: 67.0 mg/kg/injection, schedule: Q04DX003 (ip), vehicle: water)?
Its T/C is 116 % of control.

And the T/C (dose: 67.0 mg/kg/injection, schedule: Q08DX002 (ip), vehicle: water)?
The T/C was 106 % of control.

What about the T/C (dose: 89.0 mg/kg/injection, schedule: Q01DX001 (ip), vehicle: Klucel (hydroxypropylcellulose) (HPC)) of the same compound?
The T/C was 106 % of control.

What about the T/C (dose: 100.0 mg/kg/injection, schedule: Q01DX001 (ip), vehicle: water) of the same compound?
Its T/C is 102 % of control.

And the T/C (dose: 100.0 mg/kg/injection, schedule: Q01DX001 (oral), vehicle: water)?
Its T/C is 101 % of control.

What about the T/C (dose: 100.0 mg/kg/injection, schedule: Q01DX005 (iv), vehicle: water) of the same compound?
The T/C was 100 % of control.

What about the T/C (dose: 100.0 mg/kg/injection, schedule: Q01DX009 (oral), vehicle: water) of the same compound?
The T/C was 94 % of control.

And the T/C (dose: 100.0 mg/kg/injection, schedule: Q01DX009 (sc), vehicle: water)?
The T/C was 108 % of control.

And the T/C (dose: 100.0 mg/kg/injection, schedule: Q03HX008 (ip), vehicle: water)?
Its T/C is 120 % of control.

What about the T/C (dose: 100.0 mg/kg/injection, schedule: Q03HX016 (ip), vehicle: water) of the same compound?
Its T/C is 118 % of control.

What about the T/C (dose: 100.0 mg/kg/injection, schedule: Q03HX024 (ip), vehicle: water) of the same compound?
The T/C was 112 % of control.

And the T/C (dose: 100.0 mg/kg/injection, schedule: Q04DX003 (ip), vehicle: water)?
Its T/C is 110 % of control.

What about the T/C (dose: 100.0 mg/kg/injection, schedule: Q08DX002 (ip), vehicle: water) of the same compound?
The T/C was 113 % of control.

And the T/C (dose: 133.0 mg/kg/injection, schedule: Q01DX009 (ip), vehicle: Klucel (hydroxypropylcellulose) (HPC))?
Its T/C is 156 % of control.

What about the T/C (dose: 133.0 mg/kg/injection, schedule: Q04DX003 (ip), vehicle: Klucel (hydroxypropylcellulose) (HPC)) of the same compound?
The T/C was 124 % of control.

What about the T/C (dose: 150.0 mg/kg/injection, schedule: Q01DX001 (ip), vehicle: water) of the same compound?
The T/C was 98 % of control and 104 % of control.

And the T/C (dose: 150.0 mg/kg/injection, schedule: Q01DX001 (oral), vehicle: water)?
The T/C was 98 % of control.

And the T/C (dose: 150.0 mg/kg/injection, schedule: Q01DX005 (iv), vehicle: water)?
The T/C was 102 % of control.

And the T/C (dose: 150.0 mg/kg/injection, schedule: Q01DX009 (oral), vehicle: water)?
The T/C was 90 % of control.

What about the T/C (dose: 150.0 mg/kg/injection, schedule: Q01DX009 (sc), vehicle: water) of the same compound?
The T/C was 115 % of control.

What about the T/C (dose: 150.0 mg/kg/injection, schedule: Q03HX008 (ip), vehicle: water) of the same compound?
Its T/C is 121 % of control.

And the T/C (dose: 150.0 mg/kg/injection, schedule: Q04DX003 (ip), vehicle: water)?
Its T/C is 108 % of control and 122 % of control.

What about the T/C (dose: 150.0 mg/kg/injection, schedule: Q08DX002 (ip), vehicle: water) of the same compound?
The T/C was 121 % of control.

What about the T/C (dose: 200.0 mg/kg/injection, schedule: Q01DX001 (ip), vehicle: Klucel (hydroxypropylcellulose) (HPC)) of the same compound?
Its T/C is 124 % of control.

What about the T/C (dose: 200.0 mg/kg/injection, schedule: Q01DX009 (ip), vehicle: water) of the same compound?
Its T/C is 152 % of control.

And the T/C (dose: 225.0 mg/kg/injection, schedule: Q01DX001 (ip), vehicle: water)?
Its T/C is 93 % of control and 110 % of control.

And the T/C (dose: 225.0 mg/kg/injection, schedule: Q01DX001 (oral), vehicle: water)?
Its T/C is 94 % of control.

And the T/C (dose: 225.0 mg/kg/injection, schedule: Q01DX005 (iv), vehicle: water)?
The T/C was 104 % of control.

And the T/C (dose: 225.0 mg/kg/injection, schedule: Q01DX009 (oral), vehicle: water)?
The T/C was 92 % of control.

What about the T/C (dose: 225.0 mg/kg/injection, schedule: Q01DX009 (sc), vehicle: water) of the same compound?
The T/C was 104 % of control.

And the T/C (dose: 225.0 mg/kg/injection, schedule: Q04DX003 (ip), vehicle: water)?
The T/C was 107 % of control and 111 % of control.

What about the T/C (dose: 225.0 mg/kg/injection, schedule: Q08DX002 (ip), vehicle: water) of the same compound?
Its T/C is 111 % of control.

And the T/C (dose: 337.0 mg/kg/injection, schedule: Q01DX001 (ip), vehicle: water)?
Its T/C is 98 % of control.

What about the T/C (dose: 337.0 mg/kg/injection, schedule: Q01DX001 (oral), vehicle: water) of the same compound?
The T/C was 99 % of control.

And the T/C (dose: 337.0 mg/kg/injection, schedule: Q01DX009 (oral), vehicle: water)?
The T/C was 97 % of control.

And the T/C (dose: 337.0 mg/kg/injection, schedule: Q04DX003 (ip), vehicle: water)?
The T/C was 105 % of control and 112 % of control.

And the T/C (dose: 450.0 mg/kg/injection, schedule: Q01DX001 (ip), vehicle: Klucel (hydroxypropylcellulose) (HPC))?
The T/C was 111 % of control.

What about the T/C (dose: 506.0 mg/kg/injection, schedule: Q01DX001 (oral), vehicle: water) of the same compound?
The T/C was 93 % of control.

Which T/C [2] does the source give for `O=C1NNC(=O)NN1` here?
The T/C was 118 % of control.

What about the T/C [3] of the same compound?
The T/C was 106 % of control.

What does the source list for `CC(C)(C)OC(=O)NC(CCC(=O)OCc1ccccc1)C(=O)ON1C(=O)CCC1=O` (stereo not drawn)?
T/C [4]: 95 % of control; T/C [5]: 90 % of control

Which results are given for `Clc1ccc2c(c1)C(=P(c1ccccc1)(c1ccccc1)c1ccccc1)c1cc(Cl)cc(Cl)c1-2`?
T/C [5]: 91 % of control; T/C [6]: 89 % of control

How did the T/C (dose: 25.0 mg/kg/injection, schedule: Q01DX009 (ip), vehicle: saline with Tween-80) turn out when `CCC(=O)Nc1cc(C(F)(F)F)ccc1Cl` was run?
The T/C was 100 % of control.

And the T/C [4]?
The T/C was 101 % of control and 119 % of control.

And the T/C [5]?
Its T/C is 96 % of control and 105 % of control.

What about the T/C [6] of the same compound?
The T/C was 105 % of control.

With `O=[As](O)(O)c1ccc(Nc2nc(Cl)nc(Cl)n2)cc1` as the compound, how does the T/C (dose: 3.13 mg/kg/injection, schedule: Q01DX009 (ip), vehicle: Klucel (hydroxypropylcellulose) (HPC)) read?
The T/C was 100 % of control.

What about the T/C [1] of the same compound?
Its T/C is 110 % of control.

Which results are given for `CCOc1ccc(NC(=O)Nc2cccc(Cl)c2)cc1`?
T/C [2]: 100 % of control; T/C [3]: 93 % of control; T/C (dose: 400.0 mg/kg/injection, schedule: Q01DX009 (ip), vehicle: Klucel (hydroxypropylcellulose) (HPC)): 96 % of control

What does the source list for `O=C(O)/C=C/C(=O)Nc1ccc(N=Nc2ccccc2)cc1`?
T/C (dose: 50.0 mg/kg/injection, schedule: Q01DX009 (ip), vehicle: Klucel (hydroxypropylcellulose) (HPC)): 104 % of control; T/C [2]: 105 % of control; T/C [3]: 97 % of control

For `O=C(COc1ccc(Cl)cc1)Nc1cccc(C(F)(F)F)c1`, which T/C (dose: 5.0 mg/kg/injection, schedule: Q01DX009 (ip), vehicle: Klucel (hydroxypropylcellulose) (HPC)) is on record?
Its T/C is 117 % of control.

What about the T/C (dose: 9.4 mg/kg/injection, schedule: Q01DX009 (ip), vehicle: saline with Tween-80) of the same compound?
Its T/C is 93 % of control.

And the T/C (dose: 10.0 mg/kg/injection, schedule: Q01DX009 (ip), vehicle: Klucel (hydroxypropylcellulose) (HPC))?
Its T/C is 101 % of control.

What about the T/C (dose: 37.5 mg/kg/injection, schedule: Q01DX009 (ip), vehicle: saline with Tween-80) of the same compound?
The T/C was 90 % of control and 91 % of control.
